From ChEMBL document CHEMBL3232772, “Spiramine derivatives induce apoptosis of Bax(-/-)/Bak(-/-) cell and cancer cells” (Bioorg Med Chem Lett, 2014)
Calls of active or inactive are those of the source. The calls are words filed in the database; no cut-off is given here.

Experiments:
SW480 [1] = assay: Cytotoxicity against human SW480 cells after 48 hrs by MTT assay; type: functional, cell-based; settings: SW480, 48 h
HL-60 = assay: Cytotoxicity against human HL60 cells after 48 hrs by MTT assay; type: functional, cell-based; settings: HL-60, 48 h
MCF7 = assay: Cytotoxicity against human MCF7 cells after 48 hrs by MTT assay; type: functional, cell-based; settings: MCF7, 48 h
MEF [2] = assay: Induction of apoptosis in Bax(-/-)/Bak(-/-) MEF at 10 uM after 24 to 48 hrs; type: functional, cell-based; settings: Mus musculus
SMMC-7721 = assay: Cytotoxicity against human SMMC7721 cells after 48 hrs by MTT assay; type: functional, cell-based; settings: SMMC-7721, 48 h
MEF [3] = assay: Induction of apoptosis in Bax(-/-)/Bak(-/-) MEF after 48 hrs; type: functional, cell-based; settings: Mus musculus
A549 = assay: Cytotoxicity against human A549 cells after 48 hrs by MTT assay; type: functional, cell-based; settings: A549, 48 h
SW480 [4] = assay: Induction of apoptosis in human SW480 cells assessed as activation of caspase activity at 20 uM after 24 hrs by CASPACE-FITC staining (reference value: 6.2%); type: functional
SW480 [5] = assay: Induction of apoptosis in human SW480 cells assessed as early apoptotic cells at 20 uM after 24 hrs using annexin V-FITC and propidium iodide staining by flow cytometry (reference value: 1.4%); type: functional
MEF [6] = assay: Induction of apoptosis in Bax(-/-)/Bak(-/-) MEF assessed as late apoptotic cells at 20 uM after 24 hrs using annexin V-FITC and propidium iodide staining by flow cytometry (reference value: 3.3%); type: functional, Mus musculus
MEF [7] = assay: Induction of apoptosis in Bax(-/-)/Bak(-/-) MEF assessed as early apoptotic cells at 20 uM after 24 hrs using annexin V-FITC and propidium iodide staining by flow cytometry (reference value: 0.6%); type: functional, Mus musculus
SW480 [8] = assay: Induction of apoptosis in human SW480 cells assessed as late apoptotic cells at 20 uM after 24 hrs using annexin V-FITC and propidium iodide staining by flow cytometry (reference value: 1.0%); type: functional
MEF [9] = assay: Induction of apoptosis in Bax(-/-)/Bak(-/-) MEF assessed as activation of caspase activity at 20 uM after 24 hrs by CASPACE-FITC staining (reference value: 12.2%); type: functional, Mus musculus
MEF [10] = assay: Induction of apoptosis in Bax(-/-)/Bak(-/-) MEF assessed as activation of caspase activity at 10 uM after 24 hrs by CASPACE-FITC staining (reference value: 12.2%); type: functional, Mus musculus
[11] = Cytotoxicity against human MCF7/ADR cells after 48 hrs by MTT assay; type: functional, cell-based; settings: NCI/ADR-RES
NCI/ADR-RES = assay: Resistant factor, ratio of IC50 for human MCF7/ADR cells to IC50 for human MCF7 cells; type: functional
MEF [12] = assay: Induction of apoptosis in Bax(-/-)/Bak(-/-) MEF assessed as late apoptotic cells at 10 uM after 24 hrs using annexin V-FITC and propidium iodide staining by flow cytometry (reference value: 3.3%); type: functional, Mus musculus
MEF [13] = assay: Induction of apoptosis in Bax(-/-)/Bak(-/-) MEF assessed as early apoptotic cells at 10 uM after 24 hrs using annexin V-FITC and propidium iodide staining by flow cytometry (reference value: 0.6%); type: functional, Mus musculus
SW480 [14] = assay: Induction of apoptosis in human SW480 cells assessed as late apoptotic cells at 10 uM after 24 hrs using annexin V-FITC and propidium iodide staining by flow cytometry (reference value: 1.0%); type: functional
SW480 [15] = assay: Induction of apoptosis in human SW480 cells assessed as early apoptotic cells at 10 uM after 24 hrs using annexin V-FITC and propidium iodide staining by flow cytometry (reference value: 1.4%); type: functional
SW480 [16] = assay: Induction of apoptosis in human SW480 cells assessed as activation of caspase activity at 10 uM after 24 hrs by CASPACE-FITC staining (reference value: 6.2%); type: functional

| SMILES | IC50 (SW480 [1]) | IC50 (HL-60) | IC50 (MCF7) | Activity (MEF [2]) | IC50 (SMMC-7721) | IC50 (MEF [3]) | IC50 (A549) | Activity (SW480 [4]) | Activity (SW480 [5]) | Activity (MEF [6]) | Activity (MEF [7]) | Activity (SW480 [8]) | Activity (MEF [9]) | further results |
| --- | --- | --- | --- | --- | --- | --- | --- | --- | --- | --- | --- | --- | --- | --- |
| C=C1C(=O)[C@]23CC[C@H]1C[C@H]2[C@@]12CCC[C@@](C)(COC1=O)[C@H]2C[C@H]3O | 3.58 µM | 6.36 µM | 3.25 µM | Active | 3.96 µM | 1.74 µM | 3.22 µM | – | – | – | – | – | – | – |
| C=C1C(=O)[C@]23CC[C@H]1C[C@H]2[C@@]12CCC[C@@]4(C)CN(CCO)[C@H]1O[C@@H]3C[C@H]42 | 14 µM | 19.3 µM | 10.3 µM | Active | 23.6 µM | – | 18.6 µM | – | – | – | – | – | – | – |
| C=C1C(=O)[C@]23CC[C@H]1C[C@H]2[C@@]12CCC[C@@](C)(CN(CCO)C1)[C@H]2C(=C)C3=O | 2.81 µM | 6.61 µM | 3.57 µM | Active | 11.5 µM | 1.81 µM | 6.5 µM | 29.8% | 13.1% | 76.8% | 28.2% | 44.2% | 97.1% | – |
| C=C1C(=O)[C@]23CC[C@H]1C[C@H]2[C@@]12CCC[C@@](C)(C(=O)N4CCO[C@H]41)[C@H]2C[C@H]3O | 2.81 µM | 2.73 µM | 1.12 µM | Active | 2.63 µM | 3.38 µM | 3.09 µM | 60.1% | 46.7% | 68.3% | 21.7% | 40.1% | 93.2% | Activity (MEF [10]): 14.3%; IC50 [11]: 8.8 µM; Ratio IC50 (NCI/ADR-RES): 1.66; Activity (MEF [12]): 2.1%; Activity (MEF [13]): 8.6%; Activity (SW480 [14]): 8.6%; Activity (SW480 [15]): 25.5%; Activity (SW480 [16]): 12.1% |
| C=C1C(=O)[C@@]23CC[C@@H](C[C@H]2[C@@]24CCC[C@@](C)(CN(CCO)C2)[C@@H]14)C(=C)[C@@H]3O | 9.84 µM | 4.82 µM | 6.98 µM | Active | 1.48 µM | – | 3.04 µM | – | – | – | – | – | – | – |
| C=C1C(=O)[C@]23CC[C@H]1C[C@H]2[C@@]12CCC[C@@](C)(CN(CCO)C1)[C@H]2C[C@H]3O | 14.4 µM | 7.95 µM | 16.6 µM | Active | 11.2 µM | – | 9.92 µM | – | – | – | – | – | – | – |
| C=C1C(=O)[C@]23CC[C@H]1C[C@H]2[C@@]12CCC[C@@](C)(CN(CCO)C1)[C@H]2CC3=O | 11.8 µM | 14.3 µM | 15.7 µM | Active | 15.2 µM | 4.52 µM | 9.24 µM | 10.9% | 10.9% | 52.2% | 11.7% | 13.3% | 66.6% | – |
| COc1cccc2c1C(=O)c1c(O)c3c(c(O)c1C2=O)C[C@@](O)(C(=O)CO)C[C@@H]3O[C@H]1C[C@H](N)[C@H](O)[C@H](C)O1 [DOXORUBICIN] | – | – | 0.077 µM | – | – | – | – | – | – | – | – | – | – | IC50 [11]: 68.4 µM; Ratio IC50 (NCI/ADR-RES): 888.75 |
| C=C1C(=O)[C@]23CC[C@H]1C[C@H]2[C@@]12CCC[C@@]4(C)C(=O)N(CCO)[C@H]1O[C@@H]3C[C@@H]24 | 12.4 µM | 18.6 µM | 13.2 µM | Active | 18.4 µM | – | 17.9 µM | – | – | – | – | – | – | – |
| C=C1C(=O)[C@]23CC[C@H]1C[C@H]2[C@@]12CCC[C@@]4(C)C(=O)N[C@H]1O[C@@H]3C[C@@H]24 | 14.2 µM | 18.6 µM | 15.7 µM | Active | 15.7 µM | – | 19 µM | – | – | – | – | – | – | IC50 [11]: 28.3 µM; Ratio IC50 (NCI/ADR-RES): 1.4 |
| C=C1C(=O)[C@]23CC[C@H]1C[C@H]2[C@@]12CCC[C@@]4(C)C5OCCN5[C@H]1O[C@@H]3C[C@@H]24 (stereo partly drawn) | 1.97 µM | 1.34 µM | 0.67 µM | Active | 1.04 µM | 2.24 µM | 2.03 µM | 18.2% | 16.9% | 86.2% | 1.9% | 15.9% | 87.8% | – |
| C=C1C(=O)[C@]23CC[C@H]1C[C@H]2[C@@]12CCC[C@@](C)(CN(CCO[Si](C)(C)C(C)(C)C)C1)[C@H]2C(=C)C3=O | 2.78 µM | 1.39 µM | 2.9 µM | Active | 2.63 µM | – | 1.55 µM | – | – | – | – | – | – | – |
